Experimental data from ChEMBL document CHEMBL1201862, “PubChem BioAssay data set” (2004).
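Protocol summary: plate cells (96-well), add compound at 5 concentrations, incubate 48 h, interpolate endpoints linearly. GI50: concentration for 50% inhibition of growth.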 Active and inactive are the calls of the source. Rule as the data show it: active = GI50 up to about 1.1 µM and inactive = higher.

Key:
Assay in all cases: NCI anticancer screen, dose series, 48 h
ACHN = test system: ACHN
BT-549 = test system: BT-549
HOP-62 = test system: HOP-62
HT-29 = test system: HT-29
LOX IMVI = test system: LOX IMVI
MCF7 = test system: MCF7
MDA-MB-231 = test system: MDA-MB-231
MDA-MB-435 = test system: MDA-MB-435
MOLT-4 = test system: MOLT-4
NCI-H226 = test system: NCI-H226
NCI-H23 = test system: NCI-H23
OVCAR-5 = test system: OVCAR-5
RXF 393 = test system: RXF 393
SF-268 = test system: SF-268
SF-295 = test system: SF-295
SK-MEL-2 = test system: SK-MEL-2
SK-MEL-5 = test system: SK-MEL-5
TK-10 = test system: TK-10
U-251 = test system: U-251
HCC 2998 = test system: HCC 2998

SMILES	GI50 (ACHN)	GI50 (BT-549)	GI50 (HOP-62)	GI50 (HT-29)	GI50 (LOX IMVI)	GI50 (MCF7)	GI50 (MDA-MB-231)	GI50 (MDA-MB-435)	GI50 (MOLT-4)	GI50 (NCI-H226)	GI50 (NCI-H23)	GI50 (OVCAR-5)	GI50 (RXF 393)	GI50 (SF-268)	GI50 (SF-295)	GI50 (SK-MEL-2)	GI50 (SK-MEL-5)	GI50 (TK-10)	GI50 (U-251)	GI50 (HCC 2998)
Cn1c(=O)c2nc(CCCc3ccc([N+](=O)[O-])cc3)[nH]c2n(C)c1=O	> 100 µM (inactive)	> 100 µM (inactive)	> 100 µM (inactive)	> 100 µM (inactive)	> 100 µM (inactive)	> 100 µM (inactive)	> 100 µM (inactive)	> 100 µM (inactive)	56.6 µM (inactive)	> 100 µM (inactive)	> 100 µM (inactive)	> 100 µM (inactive)	> 100 µM (inactive)	> 100 µM (inactive)	> 100 µM (inactive)	> 100 µM (inactive)	59.3 µM (inactive)	> 100 µM (inactive)	> 100 µM (inactive)	
O=c1[nH]c2ccc([N+](=O)[O-])c(Cl)c2c2ccccc12	4.48 µM (inactive)	4.04 µM (inactive)	10.8 µM (inactive)	0.887 µM (active)	1.68 µM (inactive)	0.258 µM (active)	8.07 µM (inactive)	2.1 µM (inactive)	0.91 µM (active)	11.5 µM (inactive)	5.87 µM (inactive)	5.04 µM (inactive)		2.74 µM (inactive)	2.62 µM (inactive)	6.1 µM (inactive)	3.84 µM (inactive)	1.37 µM (inactive)	4.43 µM (inactive)	5.46 µM (inactive)
Cc1ccc(C(=O)N/N=C(\N=N\c2ccccc2[N+](=O)[O-])c2ccc(N(C)C)cc2)cc1	> 100 µM (inactive)	> 100 µM (inactive)		> 100 µM (inactive)	> 100 µM (inactive)	> 100 µM (inactive)	> 100 µM (inactive)	22.8 µM (inactive)	> 100 µM (inactive)	> 100 µM (inactive)	> 100 µM (inactive)	> 100 µM (inactive)		> 100 µM (inactive)	> 100 µM (inactive)	> 100 µM (inactive)	> 100 µM (inactive)	> 100 µM (inactive)	> 100 µM (inactive)	60.5 µM (inactive)
CC1(C)[C@H]2Cc3cc4nc5ccccn5c4cc3[C@@H]1C2	18.7 µM (inactive)	24.9 µM (inactive)	18.7 µM (inactive)	14.1 µM (inactive)	19.6 µM (inactive)	3.37 µM (inactive)	13 µM (inactive)	15.3 µM (inactive)	27.1 µM (inactive)	16.2 µM (inactive)	17 µM (inactive)	13.9 µM (inactive)		17.6 µM (inactive)	15.2 µM (inactive)	15.5 µM (inactive)	17.6 µM (inactive)	16.3 µM (inactive)	15.7 µM (inactive)	18.3 µM (inactive)
O=C(c1ccccc1)C1N=NCC1c1ccc([N+](=O)[O-])cc1 (centres undefined)	47.1 µM (inactive)	24.2 µM (inactive)	> 100 µM (inactive)	36.6 µM (inactive)	36.6 µM (inactive)	22.4 µM (inactive)	> 100 µM (inactive)	49.1 µM (inactive)	22.4 µM (inactive)	50.4 µM (inactive)	36.1 µM (inactive)	> 100 µM (inactive)		40.5 µM (inactive)	> 100 µM (inactive)	46.9 µM (inactive)	26.1 µM (inactive)	34 µM (inactive)	48.5 µM (inactive)	> 100 µM (inactive)
CSc1ncnc2c1ncn2C1CC(Oc2ccc(C)cc2)C(COc2ccc(C)cc2)O1 (centres undefined)	> 100 µM (inactive)	> 100 µM (inactive)	> 100 µM (inactive)	> 100 µM (inactive)	> 100 µM (inactive)	> 100 µM (inactive)	> 100 µM (inactive)	> 100 µM (inactive)	6.1 µM (inactive)	> 100 µM (inactive)	49.4 µM (inactive)	> 100 µM (inactive)		> 100 µM (inactive)	> 100 µM (inactive)	> 100 µM (inactive)	52.2 µM (inactive)	> 100 µM (inactive)	> 100 µM (inactive)	> 100 µM (inactive)
O=C/C(=C(/Br)I)c1ccccc1	3.1 µM (inactive)	2.42 µM (inactive)	15.7 µM (inactive)	2.29 µM (inactive)	3.81 µM (inactive)	1.3 µM (inactive)	2.56 µM (inactive)	2.56 µM (inactive)	0.597 µM (active)	9.64 µM (inactive)	5.11 µM (inactive)	9.86 µM (inactive)	2.71 µM (inactive)	2.3 µM (inactive)	5.77 µM (inactive)	3.42 µM (inactive)	7.06 µM (inactive)	6.12 µM (inactive)	4.1 µM (inactive)	
COc1cc2c(cc1OCCCCOc1cc3nc(C)nc(Cl)c3cc1OC)N=C[C@@H]1CCCN1C2=O	1.94 µM (inactive)	2.17 µM (inactive)	2.67 µM (inactive)	2.42 µM (inactive)	1.27 µM (inactive)	3.03 µM (inactive)	1.25 µM (inactive)	1.62 µM (inactive)	1.7 µM (inactive)	1.85 µM (inactive)	1.82 µM (inactive)	2 µM (inactive)	2.12 µM (inactive)	2.74 µM (inactive)	2.43 µM (inactive)	1.95 µM (inactive)	1.77 µM (inactive)	2.34 µM (inactive)	1.26 µM (inactive)	
COCC12CCC(OC)C34C5CC6(O)C(OC)C=C(C5C6OC(=O)c5ccccc5)C(C(OC)C13)C4N(C)C2 (centres undefined)	> 100 µM (inactive)	> 100 µM (inactive)	> 100 µM (inactive)	> 100 µM (inactive)	> 100 µM (inactive)	> 100 µM (inactive)	> 100 µM (inactive)	> 100 µM (inactive)			> 100 µM (inactive)	> 100 µM (inactive)	> 100 µM (inactive)	> 100 µM (inactive)	> 100 µM (inactive)	> 100 µM (inactive)	> 100 µM (inactive)	> 100 µM (inactive)	> 100 µM (inactive)	> 100 µM (inactive)
COc1cc(NS(C)(=O)=O)ccc1Nc1cc(C)nc2ccc3[nH]ccc3c12	> 100 µM (inactive)	> 100 µM (inactive)	> 100 µM (inactive)	> 100 µM (inactive)	> 100 µM (inactive)	> 100 µM (inactive)	> 100 µM (inactive)	> 100 µM (inactive)		> 100 µM (inactive)	> 100 µM (inactive)	> 100 µM (inactive)		> 100 µM (inactive)	> 100 µM (inactive)	> 100 µM (inactive)	> 100 µM (inactive)	> 100 µM (inactive)	> 100 µM (inactive)	
Cc1[nH]c2[nH]c(=S)nc(NC(N)=S)c2c1Cc1ccccc1	> 100 µM (inactive)	14.3 µM (inactive)	47 µM (inactive)	22.3 µM (inactive)	19.6 µM (inactive)	38.1 µM (inactive)	28.1 µM (inactive)	17.3 µM (inactive)	23.4 µM (inactive)	> 100 µM (inactive)	29.7 µM (inactive)	> 100 µM (inactive)		43.8 µM (inactive)	35.2 µM (inactive)	93.1 µM (inactive)	13.4 µM (inactive)	62.8 µM (inactive)	43.9 µM (inactive)	
CC(C)=CCNc1ncnc2[nH]cnc12	> 100 µM (inactive)	> 100 µM (inactive)	> 100 µM (inactive)	> 100 µM (inactive)	> 100 µM (inactive)	> 100 µM (inactive)	> 100 µM (inactive)	> 100 µM (inactive)	> 100 µM (inactive)	90.2 µM (inactive)	> 100 µM (inactive)	> 100 µM (inactive)	> 100 µM (inactive)	> 100 µM (inactive)	> 100 µM (inactive)	> 100 µM (inactive)	87.7 µM (inactive)	> 100 µM (inactive)	> 100 µM (inactive)	
COc1ccc(P2(=S)Oc3ccc(C(c4ccccc4)(c4ccccc4)c4ccccc4)cc3O2)cc1 (centres undefined)	16.7 µM (inactive)	24.9 µM (inactive)	24.6 µM (inactive)	18.8 µM (inactive)	14.5 µM (inactive)	16.8 µM (inactive)	21.2 µM (inactive)	16.4 µM (inactive)	19.6 µM (inactive)	16.6 µM (inactive)	16.9 µM (inactive)	19.5 µM (inactive)		17.2 µM (inactive)	18.1 µM (inactive)	20.5 µM (inactive)	21.6 µM (inactive)	19.1 µM (inactive)	18 µM (inactive)	16.3 µM (inactive)
CCOP(=O)(/C=C/n1cc(C)c(=O)[nH]c1=O)OCC	> 100 µM (inactive)	> 100 µM (inactive)	> 100 µM (inactive)	> 100 µM (inactive)	> 100 µM (inactive)	> 100 µM (inactive)	> 100 µM (inactive)	> 100 µM (inactive)	> 100 µM (inactive)	> 100 µM (inactive)	> 100 µM (inactive)	> 100 µM (inactive)	> 100 µM (inactive)	> 100 µM (inactive)	> 100 µM (inactive)	> 100 µM (inactive)	> 100 µM (inactive)	> 100 µM (inactive)	> 100 µM (inactive)	
Cc1cc2nc(N3C(=O)/C(=C/c4ccc(Cl)cc4)N=C3c3ccccc3)sc2cc1C	37.7 µM (inactive)	26.4 µM (inactive)	28.9 µM (inactive)	23.9 µM (inactive)	20.5 µM (inactive)	23.4 µM (inactive)	50 µM (inactive)	8.28 µM (inactive)	53.8 µM (inactive)			24.2 µM (inactive)	14.6 µM (inactive)	30 µM (inactive)	31.2 µM (inactive)	26.5 µM (inactive)	16.1 µM (inactive)	39.3 µM (inactive)	29.9 µM (inactive)	24.2 µM (inactive)
